# Measurements taken from ChEMBL document CHEMBL5131527, “Novel BTK Inhibitors for Treating Autoimmune Disorders and Cancer” (ACS Med Chem Lett, 2022).
# Biological target: Tyrosine-protein kinase BTK (Homo sapiens, UniProt Q06187)
# Experiment: Inhibition of BTK (unknown origin) using fluorescein-labeled polyGAT peptide as substrate incubated for 75 min in presence of ATP by time resolved fluorescence method
# Chain of Tyrosine-protein kinase BTK (Q06187 whole entry): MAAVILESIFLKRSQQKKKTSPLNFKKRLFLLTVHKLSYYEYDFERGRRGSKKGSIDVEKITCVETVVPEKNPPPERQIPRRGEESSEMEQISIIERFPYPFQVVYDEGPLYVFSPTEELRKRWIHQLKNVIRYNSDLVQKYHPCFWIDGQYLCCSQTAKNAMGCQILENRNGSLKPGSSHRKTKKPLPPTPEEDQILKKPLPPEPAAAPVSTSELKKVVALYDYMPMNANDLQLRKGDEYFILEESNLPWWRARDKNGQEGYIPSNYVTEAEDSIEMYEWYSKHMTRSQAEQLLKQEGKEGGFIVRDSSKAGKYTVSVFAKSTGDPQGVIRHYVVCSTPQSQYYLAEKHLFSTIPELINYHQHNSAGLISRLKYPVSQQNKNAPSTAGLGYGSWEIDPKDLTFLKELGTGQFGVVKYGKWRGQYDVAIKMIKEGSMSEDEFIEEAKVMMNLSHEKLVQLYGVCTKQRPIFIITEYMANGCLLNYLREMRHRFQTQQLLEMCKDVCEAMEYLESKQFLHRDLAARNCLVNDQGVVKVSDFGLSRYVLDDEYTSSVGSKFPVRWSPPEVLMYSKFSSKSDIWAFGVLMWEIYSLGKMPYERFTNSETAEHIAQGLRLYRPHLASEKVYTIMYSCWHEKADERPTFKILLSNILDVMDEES
row,Compound,IC50 [nM]
1,C=CC(=O)N1CCN(c2cncnc2-c2ccc(CNC(=O)c3cn(C(C)(C)C)nn3)c(C)c2)CC1,≤ 1
2,C=CC(=O)N(C)C1CCN(c2cncnc2-c2ccc(CNC(=O)c3cn(C(C)(C)C)nn3)c(C)c2)C1 (stereo unspecified),≤ 1
3,C=CC(=O)N(C)CC1CCN(c2cncnc2-c2ccc(CNC(=O)c3noc(C(C)(C)C)n3)c(C)c2)C1 (stereo unspecified),≤ 1

# Other lines, results leading:
row,IC50 [nM],Compound
1,≤ 1,C=CC(=O)N1CCN(c2cnccc2-c2ccc(CNC(=O)c3noc(C(C)(C)C)n3)c(C)c2)CC1
2,≤ 1,C=CC(=O)N(C)C1CCCN(c2cnccc2-c2ccc(CNC(=O)c3noc(C(C)(C)C)n3)c(C)c2)C1 (stereo unspecified)
3,≤ 1,C=CC(=O)N1CCN(c2cncnc2-c2ccc(CNC(=O)c3nnn(C(C)(C)C)n3)c(C)c2)CC1
